Data reported in ChEMBL document CHEMBL3244216, “Chemical modification of 1,4-diamino-1,4-dideoxy-3-O-(4-deoxy-4-propionamido-alpha-D-glucopyranosyl)-D-glucitol” (1978).
In brackets after ≈: the same amount, converted by molar mass. Activity calls are given as the source filed them. The rule behind the calls is not given here.

What was measured:
Enterococcus faecalis [1] = test: Antibacterial activity against Streptococcus faecalis 755 assessed as growth inhibition by agar dilution method; assay type: functional; design: unit not given here
Salmonella [2] = test: Antibacterial activity against drug-sensitive Salmonella 1287 assessed as growth inhibition by agar dilution method; assay type: functional; design: unit not given here
Enterococcus faecalis [3] = test: Antibacterial activity against Streptococcus faecalis 755 assessed as growth inhibition at => 200 ul/ml by agar dilution method; assay type: functional, organism-based
Proteus vulgaris [4] = test: Antibacterial activity against drug-sensitive Proteus vulgaris 838 assessed as growth inhibition at => 100 ul/ml by agar dilution method; assay type: functional, organism-based
Escherichia coli [5] = test: Antibacterial activity against drug-sensitive Escherichia coli 60 assessed as growth inhibition by agar dilution method; assay type: functional; design: unit not given here
Serratia [6] = test: Antibacterial activity against unpigmented Serratia 2840 assessed as growth inhibition by agar dilution method; assay type: functional; design: unit not given here
Pseudomonas aeruginosa [7] = test: Antibacterial activity against kanamycin and gentamicin-resistant Pseudomonas aeruginosa 3033 assessed as growth inhibition by agar dilution method; assay type: functional
Pseudomonas aeruginosa [8] = test: Antibacterial activity against Pseudomonas aeruginosa 2956 assessed as growth inhibition by agar dilution method; assay type: functional; design: unit not given here
Proteus vulgaris [9] = test: Antibacterial activity against drug-sensitive Proteus vulgaris 838 assessed as growth inhibition by agar dilution method; assay type: functional; design: unit not given here
Escherichia coli [10] = test: Antibacterial activity against drug-sensitive Escherichia coli 2482 assessed as growth inhibition by agar dilution method; assay type: functional; design: unit not given here
Staphylococcus aureus [11] = test: Antibacterial activity against Staphylococcus aureus 210 assessed as growth inhibition by agar dilution method; assay type: functional; design: unit not given here
Pseudomonas aeruginosa [12] = test: Antibacterial activity against Pseudomonas aeruginosa 2956 assessed as growth inhibition at => 200 ul/ml by agar dilution method; assay type: functional, organism-based
Klebsiella [13] = test: Antibacterial activity against drug-sensitive Klebsiella 2921 assessed as growth inhibition at => 200 ul/ml by agar dilution method; assay type: functional, organism-based
Bacillus subtilis = test: Antibacterial activity against drug-sensitive Bacillus subtilis 964 assessed as growth inhibition by agar dilution method; assay type: functional; design: unit not given here
Staphylococcus aureus [14] = test: Antibacterial activity against streptomycin, neomycin, kanamycin-resistant Staphylococcus aureus 2314 assessed as growth inhibition by agar dilution method; assay type: functional
Klebsiella [15] = test: Antibacterial activity against drug-sensitive Klebsiella 2921 assessed as growth inhibition by agar dilution method; assay type: functional
Brucella [16] = test: Antibacterial activity against drug-sensitive Brucella 965 assessed as growth inhibition by agar dilution method; assay type: functional; design: unit not given here
Staphylococcus aureus [17] = test: Antibacterial activity against drug-sensitive Staphylococcus aureus 2985 assessed as growth inhibition by agar dilution method; assay type: functional; design: unit not given here
Brucella [18] = test: Antibacterial activity against drug-sensitive Brucella 965 assessed as growth inhibition at => 200 ul/ml by agar dilution method; assay type: functional
Serratia [19] = test: Antibacterial activity against pigmented Serratia 155 assessed as growth inhibition by agar dilution method; assay type: functional; design: unit not given here
Erwinia = test: Antibacterial activity against drug-sensitive Erwinia 1159 assessed as growth inhibition by agar dilution method; assay type: functional; design: unit not given here
Escherichia coli [20] = test: Antibacterial activity against streptomycin, neomycin, kanamycin, gentamicin-resistant Escherichia coli 2964 assessed as growth inhibition by agar dilution method; assay type: functional
Staphylococcus aureus [21] = test: Antibacterial activity against streptomycin, neomycin, kanamycin-resistant Staphylococcus aureus 2314 assessed as growth inhibition at => 200 ul/ml by agar dilution method; assay type: functional, organism-based
Pseudomonas aeruginosa [22] = test: Antibacterial activity against kanamycin and gentamicin-resistant Pseudomonas aeruginosa 3033 assessed as growth inhibition at => 200 ul/ml by agar dilution method; assay type: functional, organism-based
Proteus vulgaris [23] = test: Antibacterial activity against drug-sensitive Proteus vulgaris 838 assessed as growth inhibition at => 200 ul/ml by agar dilution method; assay type: functional, organism-based
Salmonella [24] = test: Antibacterial activity against drug-sensitive Salmonella 1287 assessed as growth inhibition at => 200 ul/ml by agar dilution method; assay type: functional, organism-based

SMILES | MIC (Enterococcus faecalis [1]) | MIC (Salmonella [2]) | growth inhibition (GI) (Enterococcus faecalis [3]) | MIC (Escherichia coli [5]) | MIC (Serratia [6]) | MIC (Pseudomonas aeruginosa [7]) | MIC (Pseudomonas aeruginosa [8]) | MIC (Proteus vulgaris [9]) | MIC (Escherichia coli [10]) | MIC (Staphylococcus aureus [11]) | growth inhibition (GI) (Pseudomonas aeruginosa [12]) | MIC (Bacillus subtilis) | MIC (Staphylococcus aureus [14]) | MIC (Klebsiella [15]) | MIC (Brucella [16]) | MIC (Staphylococcus aureus [17]) | MIC (Serratia [19]) | MIC (Erwinia) | further results
CCCN[C@H]1[C@H](O)[C@@H](O)[C@@H](O[C@@H]([C@H](N)[C@H](O)CO)[C@@H](O)CN)O[C@@H]1CO | 200 | 100 | inactive | 200 | 200 | > 200 µg/mL | 200 | 200 | 200 | 50 | inactive | 50 | 100 µg/mL (≈ 261 µM) | 200 uL/ml | 200 | 50 |  |  | growth inhibition (GI) (Proteus vulgaris [4]): inactive; growth inhibition (GI) (Klebsiella [13]): inactive
CC(=O)N[C@H]1[C@H](O)[C@@H](O)[C@@H](O[C@@H]([C@H](N)[C@H](O)CO)[C@@H](O)CN)O[C@@H]1CO | >200 | 200 |  | 200 | >200 | > 200 µg/mL |  | 200 | 100 | 200 |  | 100 | > 200 µg/mL |  | 200 | 200 | >200 | 100 | growth inhibition (GI) (Brucella [18]): inactive
NC[C@H]1O[C@H](O[C@H]2[C@H](O)[C@@H](O[C@H]3O[C@H](CO)[C@@H](O)[C@H](N)[C@H]3O)[C@H](N)C[C@@H]2N)[C@H](O)[C@@H](O)[C@@H]1O [KANAMYCIN] |  |  |  |  |  | 100 µg/mL (≈ 206 µM) |  |  |  |  |  |  | > 100 µg/mL |  |  |  |  |  | MIC (Escherichia coli [20]): 100 µg/mL (≈ 206 µM)
CCC(=O)N[C@H]1[C@H](O)[C@@H](O)[C@@H](O[C@@H]([C@H](N)[C@H](O)CO)[C@@H](O)CN)O[C@@H]1CCl | 200 | 50 |  | 100 | 100 |  | 100 | 200 | 100 | 50 |  | 50 | 200 µg/mL (≈ 481 µM) | 50 uL/ml | 100 | 50 | 200 | >25 | 
CCC(=O)N[C@H]1[C@H](O)[C@@H](O)[C@@H](O[C@@H]([C@H](N)[C@H](O)CO)[C@@H](O)CN)O[C@@H]1CO | 200 | <3.1 |  | 50 | 200 | 100 µg/mL (≈ 252 µM) | 50 | 100 | 50 | 50 |  | 50 | 200 µg/mL (≈ 503 µM) |  | 100 | 100 | >200 | <3.1 | 
CCCC(=O)N[C@H]1[C@H](O)[C@@H](O)[C@@H](O[C@@H]([C@H](N)[C@H](O)CO)[C@@H](O)CN)O[C@@H]1CO | 200 | 200 | inactive | 200 | 200 |  | 200 | 200 | 200 | 200 | inactive | 100 |  | 200 uL/ml |  | 200 | >200 | >200 | growth inhibition (GI) (Staphylococcus aureus [21]): inactive; growth inhibition (GI) (Pseudomonas aeruginosa [22]): inactive; growth inhibition (GI) (Proteus vulgaris [23]): inactive; growth inhibition (GI) (Salmonella [24]): inactive
